According to US20080107727A1, “Multiple Unit Oral Sustained Release Preparation and Production Method Thereof” (priority 2005, published 2008):

Test: Gastrointestinal absorption of imidafenacin in rats, in-situ loop technique
Type: in vivo, Male Wistar rats
Details: rat in-situ loop, 0.2 mL of 500 μg/mL isotonic solution, after 1 hour
Method: In designing oral sustained release preparations of imidafenacin, it is necessary to know the absorption properties of imidafenacin in the gastrointestinal tract. We therefore examined the gastrointestinal absorption properties of imidafenacin in rats using the in-situ loop technique. The specific procedures were as follows: Male Wistar rats (aged 7 to 9 weeks) were dissected under anesthesia with pentobarbital sodium and the common bile duct was ligated. Loops were prepared from the stomach, duodenum, jejunum, ileum and colon. 0.2 mL each of an isotonic solution (500 μg/mL) of imidafenacin was injected into the loops in […]. After 1 hour, the lumen of the loops was washed sequentially with water and 0.01 mol/L hydrochloric acid and the wash was collected from each loop. The concentration of imidafenacin in the wash was determined by high performance liquid chromatography. The standard curve was determined by applying the least squares method to the ratio of the peak areas between the imidafenacin concentration for a similarly treated standard specimen and the concentration of internal standard of imidafenacin determined by chromatography. The concentration of imidafenacin in the wash for a specimen was determined by substituting the ratio of the peak area into the standard curve. The absorption of imidafenacin for each loop was calculated by the equations (1) and (2) below. The results are shown in FIG. 5. % Remaining imidafenacin in a loop=(Conc. of imidafenacin in the wash for the loop)×25 (1) % Absorption of imidafenacin in a loop=100-% Remaining imidafenacin in that loop (2)

In the case of `Cc1nccn1CCC(C(N)=O)(c1ccccc1)c1ccccc1` [imidafenacin, 4-(2-methyl-1-imidazolyl)-2,2-diphenylbutylamide], the “absorption of imidafenacin in colon loop” value is reported as “Some absorption”, the “absorption of imidafenacin in small intestine loops (duodenum, jejunum, ileum)” value is reported as “effectively absorbed” and the “absorption of imidafenacin in stomach loop” value is reported as “less significant”.
